Read-outs that look alike come from different tables or passages of the source. Blank lines part the entries; values can stand above or below the compound they belong to.
How the values were obtained:
[1] = laser-pulse photolysis, transient absorbance (photolysis speed and product quantum yield); type: physicochemical
Procedure: (§1) To evaluate the photolysis characteristics of the 2-methoxy-5-nitro glycine ester of Example I, laser pulse photolysis was performed and the results thereof are shown in FIG. 2 by the rapid absorbance jump produced by the photolysis of the ester. The light source used to initiate the photolysis reaction was a Lumonics TE861M excimer laser. The lasing medium was either 2% N2 in helium, which produced a primary energy of 6 mJ at 337 nm with a 4 ns pulse width, or a XeCl mix that produced 70 rnJ at 308 nm in 6 ns pulses. For cell photolysis, the 337 nm light was delivered to the microscope stage for use in whole-cell recording measurements with a 300 μm core optical fiber (FiberGuide Industries); 10% of the primary energy was typically coupled through the fiber to the cell preparation. Rapid absorbance changes of caged compound solutions were measured with a transient absorbance spectrophotometer in which 308 nm light from the primary output of the laser was focussed into a 2×2 mm quartz cuvet and the absorbance changes produced were monitored at right angles to the laser beam with a single beam transient spectrophotometer whose signal transfer parameters effectively produced 500 kHz filtering of the rapid absorbance jump. The photocurrent was amplified with a Thorn EMI model Al preamplifier, which also acted as a low pass filter with cutoff dependent on the amplification selected; the cutoff frequencies were between 50 KHz and 50 MHz. The rapid absorbance jump produced in the caged ester solution by single laser flashes could be digitized at up to 2 MHz with a digital oscilloscope and in each case the preamplifier filtering was matched to the digitization rate of the data collection. Measurements of the pulsed UV light energy for quantum yield determinations were made with a Gentec ED200 calibrated thermopile.
Absorbance measurements of the fast jump were made over the range 350 to 450 nm and the resulting profile matched the absorbance spectrum of the expected 2-methoxy-5-nitrophenol. Measurements of triplet quenching in the reaction of 2-methoxy-5-nitrophenyl acetate by Kuzmic et al. (supra) indicate that the lifetime of the photohydrolysis reaction is 0.15 μs. The maximum time resolution of the transient absorbance measurements in our study is 0.5 μs.
The product quantum yield from photolysis of the caged glycine was estimated by comparison to the photolysis of 2-methoxy-5-nitrophenyl acetate, which was used as an actinometric standard. A quantum yield of 0.22 was found for a 1 mM solution of 2-methoxy-5-nitrophenyl acetate in 100 mM phosphate buffer at pH 7.0 that also contained 20% acetonitrile to substituted for caged glycine.

[2] = cited from earlier work
[3] = spontaneous hydrolysis in buffer followed spectrophotometrically; type: physicochemical
Procedure: A 1.1 mM solution of the caged glycine of Example I was prepared in extracellular recording buffer at pH 7.1. […] The caged glycine ester was rapidly dissolved in buffers to produce approximately 800 μM solutions of the caged compound and immediately transferred to a 2×2 cuvette in a Hewlett Packard model 8452A diode array spectrophotometer set up to collect spectra at timed intervals. The initial rates of the hydrolysis reaction were obtained from absorbance measurements at 310, 360 and 384 nm after subtraction of the absorbance of the completely hydrolyzed solution. The spectra of the fully hydrolyzed solutions were identical in all cases to reference spectra of 2-methoxy-5-nitrophenol at the different pH values. The upper trace at 310 nm represents the spectrum of the compound before hydrolysis. The lower trace at 310 nm corresponds to the fully hydrolyzed material and matches the spectrum of 2-methoxy-5-nitrophenol at pH 7.0. The spectra were acquired at 0, 1, 2, 3, 4, 6, 8, 11 and 60 min after the initial rapid dissolution in buffer. All measurements were performed at room temperature (22°-24° C.).

[4] = tested on: glycine receptor channels; assay: whole-cell current recording, cell-flow with mixer (effect of the caged compound or photoproduct on glycine receptor channels); type: cell-based, mouse; conditions: for effect on glycine receptors or their response to glycine: mouse cerebral cortical neurons, pH 7.1
Procedure: (§2) Whole-cell current recording was performed as follows. The preparation of embryonic mouse cortical cells was as described by Geetha et al. (Biochemistry 31:5488-5499 (1992)). The extracellular recording buffer was 145 mM NaCl, 1.8 MM MgCl2, 1 mM CaCl2 and 10 mM Hepes (pH 7.4) and the intracellular buffer was 145 mM CsCl, 1 mM CaCl2, 10 mM EGTA [ethyleneglycol-bis-(beta-aminoethyl ether) N,N,N',N'-tetraacetic acid] and 10 mM Hepes (pH 7.2) The flow method used to equilibrate receptors on the surface of a single cell with ligands within 10 ms has been described by Udgaonkar et al (Proc. Natl. Acad. Sci. USA, 84:8758-8762 (1987)). The whole-cell current responses were determined in mouse cortical neurons, pH […], room temperature (22° C.). Caged glycine solutions at pH 4.0 in extracellular buffer but containing only 5 mM Hepes were mixed in 1:1 proportions with extracellular recording buffer containing 20 mM Hepes at pH 7.4 using a low volume T-tube mixer before the solutions entered the U-tube that delivered the solution stream at pH 7.1 to the cell at a linear flow rate of 0.5 cm s^-1. The whole-cell current due to opening of glycine receptor channels was recorded using the technique of Hamill et al. (Pflugers Arch, 391:85-100 (1981)). All other details of the cell-flow technique, and the combination of the cell-flow technique with the laser-pulse photolysis technique in which the whole-cell current is measured after photolysis of caged neurotransmitter, were as described by Matsubara et al (Biochemistry, 31:5507-5514 (1992)). Hydrolysis of the caged glycine before it was applied to a cell was prevented by the mixer strategy.
Specifically, the caged glycine solution with and without free glycine at pH 4.0 was rapidly mixed with extracellular buffer to produce a solution of pH 7.1 before flowing it over the cell. A control solution of 85 μM free glycine (170 μM glycine in extracellular buffer mixed with pH 4 buffer used to stabilize the ester) is shown by the solid trace in FIG. 3. […] Identical current responses were obtained when 170 μM glycine in pH 7.4 buffer was mixed with pH 4 buffer when the solutions were altemately applied from the two different supply lines of the mixer (data not shown).

[5] = tested on: glycine receptor channels; assay: whole-cell current after laser-pulse photolysis of caged glycine (cell-flow laser-pulse photolysis); type: cell-based, mouse; conditions: for rate of rising phase of whole-cell current: 700 μM caged compound, pH 7.1
Procedure: as §1
as §2, with “strategy. […]” for “strategy.”

[6] = tested on: acetylcholine receptor; conditions: Milburn et al.; cited from earlier work

quantum yield ([1]; 1 mM solution in 100 mM phosphate buffer at pH 7.0 with 20% acetonitrile, actinometric standard): 0.22
Structure (SMILES): COc1ccc([N+](=O)[O-])cc1OC(C)=O [2-methoxy-5-nitrophenyl acetate, reference compound]
lifetime of the photohydrolysis reaction ([2]; triplet quenching measurements, Kuzmic et al.): 0.15 μs

half-life ([3]; buffer, pH 4, pH 4.0, read-out: time constant τ for hydrolysis (converted)): ~3 h
half-life ([3]; hepes buffer, pH 7.1, pH 7.1 (neutral pH, Hepes buffered solution), room temperature (22-24° C.), absorbance at 310 nm, read-out: time constant of spontaneous hydrolysis): 0.102 h
product quantum yield from photolysis ([1]; caged glycine, estimated by comparison to 2-methoxy-5-nitrophenyl acetate as actinometric standard): 0.2
time thawed pH 4 solution could be used without detectable glycine currents in the preincubation baseline ([5]; frozen aliquots of freshly prepared caged glycine pH 4 solution, thawed before application with the mixer): up to 20 min
Structure (SMILES): COc1ccc([N+](=O)[O-])cc1OC(=O)CN [caged glycine, 2-Methoxy-5-nitrophenyl glycine ester]
effect of caged glycine on current response to free glycine ([4]; 170 μM glycine mixed 1:1 with 1.1 mM caged glycine ester in pH 4 buffer, versus control 85 μM free glycine): An identical response was produced
activation of whole cell current by caged glycine ([4]; caged glycine at pH 4.0 mixed with external buffer, final pH 7.1, -40 mV, 22° C., mouse cortical neurons): did not activate any whole cell current
effect on glycine receptors or their response to glycine [4]: Neither the caged compound nor the 2-methoxy-5-nitrophenol photolysis product affected the glycine receptors or modified their response to glycine
inhibition or activation by caged glycine ([4]; mouse cortical neurons, pH 7.1, -40 mV): no observable inhibition or activation
speed of absorbance jump on photolysis with 337 nm light ([1]; 337 nm versus 308 nm light, excimer laser): as fast as the one induced by 308 nm light
time within which caged glycine is photolyzed / converted to products ([1]; laser pulse, absorbance change at 380 nm, b60: 308 or 337 nm): ≤ 3 μs
opening of glycine receptor channels on irradiation ([5]; laser pulse at 337 nm, mouse cerebral cortical neurons equilibrated with caged glycine): glycine receptor channels were opened
rate of rising phase of whole-cell current ([5]; lowest trace, 10 μm (so in the source) glycine released by photolysis): 42 s⁻¹
rate of rising phase of whole-cell current ([5]; middle trace, 18 μM glycine released by photolysis): 40 s⁻¹
rate of rising phase of whole-cell current ([5]; upper trace, 35 μM free glycine released by photolysis): 54 s⁻¹

Structure (SMILES): COc1ccc([N+](=O)[O-])cc1O [2-methoxy-5-nitrophenol]
effect on glycine receptors or their response to glycine [4]: Neither the caged compound nor the 2-methoxy-5-nitrophenol photolysis product affected the glycine receptors or modified their response to glycine

Structure (SMILES): O=C(O)CNC(C(=O)O)c1ccccc1[N+](=O)[O-] (stereo not shown) [N-(.varies.-carboxy-2-nitrobenzyl)glycine]
product quantum yield ([2]; Billington et al.): 0.02
photolysis time constant τ ([2]; pH 7.5, Billington et al.): 1.6 ms

Structure (SMILES): C[N+](C)(C)CCOC(=O)NC(C(=O)O)c1ccccc1[N+](=O)[O-] (stereo not shown) [caged carbamoylcholine]
biological activity before photolysis [6]: biologically inert
time to liberate carbamoylcholine by a laser pulse ([2]; laser pulse, Milburn et al.): ≤ 120 μs
photolysis t1/2 ([2]; photolysis to carbamoylcholine, Milburn et al.): 40 μs

From patent US5587509A, “Caged caboxyl compounds and use thereof” (Cornell Research Foundation, Inc., priority 1995, dated 1996)
